Data reported in article PMC9673804, “Design, synthesis and antitumor evaluation of novel pyrazolo[3,4-d]pyrimidines incorporating different amino acid conjugates as potential DHFR inhibitors” (Journal of Enzyme Inhibition and Medicinal Chemistry, 2022).
“And” between values parts separate entries of the source, which are not always exact repeats. Equal values may be shown once.

Tests used:
[1] = test system: DHFR; assay: Western blot of DHFR expression in MCF-7; type: cell-based, human
Protocol: (§1) The effect of compound 7f on the expression of DHFR, Casp3, Bax, and Bcl-2 proteins in MCF-7 cancer cells was evaluated by western blotting as previously performed. The cancer cells treated or untreated were collected were harvested and blotted on SDS-polyacrylamide gel and separated by Cleaver electrophoresis unit (Cleaver, UK), transferred onto polyvinylidene fluoride (PVDF) membranes (Millipore, USA) for 30 min using a Semi-dry Electroblotter (Biorad, USA) at 2.5 A and 25 V for 30 min. […] After washing, the chemiluminescent Western ECL substrate (Perkin Elmer, Waltham, MA, USA) was applied to the blot and then incubated for 1 min with a mixture of equal volumes from ECL solution A and ECL solution B. The chemiluminescent signals were captured using a CCD camera-based imager (Chemi Doc imager, Biorad, USA), and the bands intensities were then measured by Image J software program. […] For colorimetric assays two-way ANOVA test followed by Bonferroni posttest were used, while for quantification expression on western blot, student-t-test was used (significance p < 0.05). […]
(§2) Sodium dodecyl sulfate polyacrylamide gel electrophoresis (SDS-PAGE) is used to separate proteins based on their size. […] The secondary antibody is typically linked to an enzyme that produces luminescence upon the reaction with its substrate. […]

[2] = test system: cervical carcinoma (HeLa); assay: SRB cytotoxicity assay, HeLa; type: cell-based; settings: Homo sapiens, HeLa cells
[3] = molecular target: T1, human DHFR enzyme (Homo sapiens, UniProt P00374); assay: Elisa assay of human DHFR enzyme; type: biochemical
T1 construct: purchased MyBioSource MBS9312476
T1 sequence (P00374 1-187): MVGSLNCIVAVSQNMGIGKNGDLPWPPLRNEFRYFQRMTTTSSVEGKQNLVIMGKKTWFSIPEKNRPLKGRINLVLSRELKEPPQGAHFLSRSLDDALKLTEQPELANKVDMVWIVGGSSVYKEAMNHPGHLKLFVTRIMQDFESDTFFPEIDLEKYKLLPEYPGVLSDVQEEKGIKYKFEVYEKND
Protocol: Enzyme-linked immunosorbent assay (ELISA) assay technique was used to evaluate the anti-DHFR effects of all the synthesised compounds on as described previously. The DHFR ELISA kit (MyBioSource, MBS9312476 San Diego, CA, USA) was used according to the manufacturer instructions. […] The test was repeated in triplicate, and the significance was assessed by one-way ANOVA test followed by Tukey’s posttest, where p < 0.05 was considered significance.

[4] = test system: mammary gland breast cancer (MCF-7); assay: SRB cytotoxicity assay, MCF-7; type: cell-based; settings: Homo sapiens, MCF7, MCF-7 cells
Protocol: The SRB colorimetric assay was employed to assess the synthesized compounds’ cytotoxic effects on several cancer cell lines (Table 1)[11–14]. […] Furthermore, the effect of tested compounds was evaluated on the normal immortalized HPDE cell line.
Sulforhodamine B (SRB) assay was employed to assay in-vitro antitumor activities of all the synthesised compounds as describer previously. […] The cell lines were obtained from the American Type Culture Collection (Rockville, USA).

[5] = test system: caspase 3/7; assay: Caspase-Glo 3/7 assay in MCF-7; type: cell-based, human; settings: ½ IC50, IC50, 2×IC50, dose dependent
Protocol: The apoptotic effect of compound 7f on breast cancer cell line MCF-7 were evaluated by quantification of Bax, caspase 3/7, and Bcl-2 using Bax ELISA Kit ab199080 (ABCAM, Cambridge, UK), Caspase-Glo 3/7 assay kits (Promega, Fitchburg, MA, USA), and Bcl-2 ELISA Kit ab119506 (ABCAM, Cambridge, UK), according the instructions of manufacturers[11]^,[14]. The cells were treated with compounds 7f (½ IC50, IC50, or 2 ×IC50), and the activities were shown as a percentage change from the untreated control. The experiments were performed in triplicate applying two-way ANOVA test followed by Bonferroni posttest to evaluate the significance (p < 0.05).

[6] = test system: caspase 3; assay: Western blot of caspase-3 expression in MCF-7; type: cell-based, human
Protocol: as §1, §2

Question: With `N=C(N)NCCCC(NC(=O)c1ccc(Nc2ncnc3c2cnn3-c2ccccc2)cc1)C(=O)O` (stereo not drawn) [Compound 7f, 5-Guanidino-2-{4-[(1-phenyl-1H-pyrazolo[3,4-d]pyrimidin-4-yl)amino]benzamido}pentanoic acid] as the compound, how does the “western blotting OD DHFR” value ([1]; MCF7 cells, Cont.MCF7 0.808) read?
Answer: Its value is 0.346 OD.

Question: And the “DHFR expression (western blot)” value ([1]; MCF-7 cancer cell line)?
Answer: Its value is “significantly diminished the DHFR expression”.

Question: And the IC50 [2]?
Answer: Its IC50 is 6.99 ± 1.11 µM.

Question: What about the IC50 ([3]; DHFR ELISA kit, triplicate) of the same compound?
Answer: The IC50 was < 1 µM and 0.31 µM.

Question: What about the inhibition at 0.1 µM ([3]; conc 0.1 uM) of the same compound?
Answer: The inhibition at 0.1 µM was 44%.

Question: What about the inhibition at 1 µM ([3]; conc 1 uM) of the same compound?
Answer: The inhibition at 1 µM was 66%.

Question: What about the inhibition at 10 µM ([3]; conc 10 uM) of the same compound?
Answer: Its inhibition at 10 µM is 86%.

Question: What about the inhibition at 100 µM ([3]; conc 100 uM) of the same compound?
Answer: The inhibition at 100 µM was 94%.

Question: And the IC50 [4]?
Answer: Its IC50 is 4.65 ± 0.17 µM.

Question: And the “release of caspase 3/7” value [5]?
Answer: Its value is “significantly surge the release”.

Question: And the “western blotting OD Casp3” value ([6]; MCF7 cells, Cont.MCF7 0.171)?
Answer: The value was 0.575 OD.

Question: And the “expression of caspase 3 (western blot)” value ([6]; MCF-7)?
Answer: Its value is “significantly increased the expression”.
